Experimental data reported in patent US20250332149A1, “PIPERIDINE COMPOUNDS AND PHARMACEUTICAL COMPOSITIONS” (Lumos Pharma, Inc., priority 2024, published 2025).

Assay: Phase 1 study Part 1: plasma PK and relative bioavailability of LUM-201 tablets vs capsule
Format: in vivo, human
Details: for % AUCex, Arithmetic Mean / % AUCex, Geometric Mean / Clast, Arithmetic Mean / Clast, Geometric Mean / DNAUC0-inf, Arithmetic Mean / DNAUC0-inf, Geometric Mean / DNAUC0-last, Arithmetic Mean / DNAUC0-last, Geometric Mean / DNCmax, Arithmetic Mean / DNCmax, Geometric Mean / tlag, Median / tlast, Median / λz, Arithmetic Mean / λz, Geometric Mean / DNAUC0-inf, GLS Mean / DNAUC0-last, GLS Mean / DNCmax, GLS Mean: oral, fasted; for DNAUC0-inf, GLS Mean / DNAUC0-last, GLS Mean / DNCmax, GLS Mean: ANOVA
Description: This study in healthy adult subjects was designed to establish the pharmacokinetic (PK) and pharmacodynamic (PD) profiles for the orally administered test product (coated mini-tablets in a capsule) and reference product (mini-tablet) to evaluate relative bioavailability in Part 1 and to evaluate the food effect on the bioavailability of test product (capsule only) in Part 2.
This was a single center, open-label, randomized, Phase 1 study in healthy adult subjects. This study consisted of 2 parts: Part 1 was a 4-sequence, 4-treatment, 4 Treatment Periods, crossover study to determine the relative bioavailability of current tablets to new capsule formulations of LUM-201; Part 2 was a 2-sequence, 2-treatment, 2 Treatment Periods, crossover study to evaluate the food effect on the bioavailability of the new capsule formulation of LUM-201. An individual subject was allowed to participate in only 1 part (Part 1 or Part 2) of the study. Forty subjects were planned and enrolled in this study. • Part 1: A total of 28 subjects were planned and enrolled in Part 1. Part 1 consisted of 4 sequences, each having 4 Treatment Periods enrolling 7 subjects (1:1:1:1 ratio). During Treatment Periods 1 through 4, each subject received 4 single oral doses of LUM-201 drug product in a randomized, crossover order. • Part 2: A total of 12 subjects were planned and enrolled in Part 2. Part 2 consisted of 2 sequences, each having 2 Treatment Periods enrolling 6 subjects (1:1 ratio). Each subject received a single oral dose of LUM-201 at each Treatment Period. During Treatment Periods 1 and 2, each subject received 2 single oral doses of LUM-201 in a randomized, crossover order. • On Day 1 of Treatment Period 1, subjects were administered the assigned treatment (A or B) as randomized, followed by a washout of at least 3 days between Treatment Periods 1 and 2. Subjects stayed in-house (not discharged) between the Treatment Periods. • Treatment A was dosed at 85.3 mg capsule formulation of LUM-201 (intact capsule consumed unopened) consumed while subject was in a fasted state with 240 mL of water. • Treatment B was dosed at 85.3 mg capsule formulation of LUM-201 (intact capsule consumed unopened) consumed 30 minutes after start of a high-fat meal with 240 mL of water. • Subjects were discharged from the study center on the morning of Day 3 of Treatment Period 2 after the scheduled study assessments had been completed.
• Treatment A (reference): five 18 mg oral tablets of LUM-201 were administered under fasted state with 240 mL of water. • Treatment B (test): a single 85.3 mg dose of oral capsule formulation of LUM-201 was administered as a whole capsule under fasted state with 240 mL of water. • Treatment C (test): a single 85.3 mg dose of oral capsule formulation of LUM-201 was administered by dosing capsule contents (dry) under fasted state with 240 mL of water. • Treatment D (test): a single 85.3 mg dose of oral capsule formulation of LUM-201 was mixed (capsule contents) with banana puree (2 teaspoons), followed by 240 mL of water and was ingested within 5 minutes under fasted state (Note: Banana Puree, single serve cup was used [118.3 mL]). […]

[1] = 85.3 mg capsule, Treatments B, C and D
[2] = Part 1, Treatment A (reference): five 18 mg tablets (90 mg)
[3] = Part 1, Treatment B (test): 85.3 mg whole capsule
[4] = Part 1, Treatment C (test): 85.3 mg capsule contents (dry)
[5] = Part 1, Treatment D (test): 85.3 mg capsule contents in banana puree

Which results are given for `CC(C)(N)C(=O)N[C@H](COCc1ccccc1)C(=O)N1CCC2(CC1)CN(S(C)(=O)=O)c1ccccc12` [LUM-201, N-[1(R)-[(1,2-dihydro-1-methanesulfonylspiro[3H-indole-3,4′-piperdin]-yl)carbonyl]-2-(phenylmethyloxy)ethyl]-2-amino-2-methylpropanamide methanesulfonate]?
bioequivalence of DNAUC0-last and AUC0-inf to the 90 mg tablet, fasted (Treatment A) [1]: bioequivalent; bioequivalence of DNCmax to the 90 mg tablet dose, fasted (Treatment A) [1]: not bioequivalent; % AUCex, Arithmetic Mean [2]: 1.763%; % AUCex, Geometric Mean [2]: 1.652%; Clast, Arithmetic Mean [2]: 0.8783 ng/mL; Clast, Geometric Mean [2]: 0.8225 ng/mL; DNAUC0-inf, Arithmetic Mean [2]: 6.998 ng·h/mL/mg; DNAUC0-inf, Geometric Mean [2]: 6.247 ng·h/mL/mg; DNAUC0-last, Arithmetic Mean [2]: 6.885 ng·h/mL/mg; DNAUC0-last, Geometric Mean [2]: 6.137 ng·h/mL/mg; DNCmax, Arithmetic Mean [2]: 1.464 ng/mL/mg; DNCmax, Geometric Mean [2]: 1.267 ng/mL/mg; tlag, Median [2]: 0 h; tlast, Median [2]: 36.34 h; λz, Arithmetic Mean [2]: 0.0901 h⁻¹; λz, Geometric Mean [2]: 0.0886 h⁻¹; DNAUC0-inf, GLS Mean [2]: 6.25 ng·h/mL/mg; DNAUC0-last, GLS Mean [2]: 6.14 ng·h/mL/mg; DNCmax, GLS Mean [2]: 1.27 ng/mL/mg; % AUCex, Arithmetic Mean [3]: 1.748%; % AUCex, Geometric Mean [3]: 1.630%; Clast, Arithmetic Mean [3]: 0.7461 ng/mL; Clast, Geometric Mean [3]: 0.7189 ng/mL; DNAUC0-inf, Arithmetic Mean [3]: 6.638 ng·h/mL/mg; DNAUC0-inf, Geometric Mean [3]: 6.008 ng·h/mL/mg; DNAUC0-last, Arithmetic Mean [3]: 6.534 ng·h/mL/mg; DNAUC0-last, Geometric Mean [3]: 5.903 ng·h/mL/mg; DNCmax, Arithmetic Mean [3]: 1.353 ng/mL/mg; DNCmax, Geometric Mean [3]: 1.092 ng/mL/mg; tlag, Median [3]: 0.2494 h; tlast, Median [3]: 47.93 h; λz, Arithmetic Mean [3]: 0.0877 h⁻¹; λz, Geometric Mean [3]: 0.086 h⁻¹; DNAUC0-inf, GLS Mean [3]: 5.97 ng·h/mL/mg; DNAUC0-last, GLS Mean [3]: 5.86 ng·h/mL/mg; DNCmax, GLS Mean [3]: 1.09 ng/mL/mg; % AUCex, Arithmetic Mean [4]: 1.859%; % AUCex, Geometric Mean [4]: 1.673%; Clast, Arithmetic Mean [4]: 0.7612 ng/mL; Clast, Geometric Mean [4]: 0.7309 ng/mL; DNAUC0-inf, Arithmetic Mean [4]: 6.832 ng·h/mL/mg; DNAUC0-inf, Geometric Mean [4]: 6.259 ng·h/mL/mg; DNAUC0-last, Arithmetic Mean [4]: 6.721 ng·h/mL/mg; DNAUC0-last, Geometric Mean [4]: 6.142 ng·h/mL/mg; DNCmax, Arithmetic Mean [4]: 1.159 ng/mL/mg; DNCmax, Geometric Mean [4]: 1.014 ng/mL/mg; tlag, Median [4]: 0 h; tlast, Median [4]: 48.07 h; λz, Arithmetic Mean [4]: 0.0829 h⁻¹; λz, Geometric Mean [4]: 0.0818 h⁻¹; DNAUC0-inf, GLS Mean [4]: 6.21 ng·h/mL/mg; DNAUC0-last, GLS Mean [4]: 6.10 ng·h/mL/mg; DNCmax, GLS Mean [4]: 1.01 ng/mL/mg; % AUCex, Arithmetic Mean [5]: 1.932%; % AUCex, Geometric Mean [5]: 1.703%; Clast, Arithmetic Mean [5]: 0.8723 ng/mL; Clast, Geometric Mean [5]: 0.7962 ng/mL; DNAUC0-inf, Arithmetic Mean [5]: 7.377 ng·h/mL/mg; DNAUC0-inf, Geometric Mean [5]: 6.400 ng·h/mL/mg; DNAUC0-last, Arithmetic Mean [5]: 7.254 ng·h/mL/mg
